{"source": "patent US9315544B2", "about": "“Method of treating eosinophilia by administering an immunomodulating peptide” (National Tsing Hua University, priority 2012, dated 2016)", "key": {"[1]": {"tested_on": "mite-induced airway hyperresponsiveness", "test": "Mite-induced airway hyperresponsiveness, pause enhancement (Penh) by whole-body plethysmography", "assay_type": "in vivo, BALB/c mouse", "excerpt": "(§1) FIG. 4 illustrates experimental design. All groups except control group were immunized with mite crude extract allergen on days 1 and 8, then mite crude extract allergen intratracheally on day 15 in all mite treated group, BALB/c mouse were divided into six groups (1) control group (PBS), (2) mites delivered intratracheally (mIT, mite on day 15) alone, (3) CMP intranasal (eIN, CMP on days 1 to 22) alone, (4) preventive-treatment group (eIN+mIT, CMP on days 1 to 14, mite on day 15) (5) therapy-treatment group (mIT+eIN, mite on day 15, CMP on days 15 to 22), and (6) preventive- and therapeutic-treatment group (eIN+mIT+eIN, CMP on days 1 to 22, mite on day 15).\nFIG. 5 illustrates inhibitory effect of CMP on mite-induced airway hyperresponsiveness. The effect of methacholine (MCh) on pause enhancement (Penh) in mouse exposed to CMP in the presence and absence of mite proteins. Penh was measured in all six treatment groups after stimulation with 6.25, 12.5, or 25 mg/ml MCh for 1 min. The values were presented as a ratio with respect to the baseline Penh (before MCh stimulation) for each group. Each result was expressed as the mean±S.D., n=4. **, P<0.01. ***, P<0.001. […]\nAirway responsiveness was measured in mouse on day 22 (i.e., 1 hour after the last challenge) in conscious, spontaneously breathing mouse using a whole-body plethysmography system (Buxco, Wilmington, N.C., USA) as described before (Maeda T, et al, Eur J Biochem 2002, 269, 307-316). […] The chamber-pressure-time wave was continuously measured via a transducer connected to a computer data acquisition system. After a baseline Penh reading for >3 min, mice were serially exposed to increasing concentrations of nebulized methacholine (MCh) (0, 6.25, 12.5, and 25 mg/ml; Sigma, St Louis, Mo., USA) in PBS for 1 min by inhalation. Penh values, which are measured as changes in enhanced pause, tidal volume, and breathing frequency (breaths/minute) for the first 3 min after the end of MCh nebulization, were averaged and used to compare responses among all six-treatment groups. […]"}, "[2]": {"tested_on": "mite-induced airway inflammation", "test": "Lung histopathology (H&E), peri-bronchiolar and alveolar inflammation scores", "assay_type": "in vivo, BALB/c mouse", "excerpt": "as §1\nFIG. 6A-6B illustrates inhibitory effect of CMP on influx of inflammatory cells. […] (A) Scores for peri-bronchiolar, alveolar inflammation and (B) PAS were determined based on the histological sections. Each result was expressed as the mean±S.D., n=4. ***, P<0.001. […]\nThe formalin-fixed lung sections stained with hematoxylin and eosin (H&E) were assigned a unit value for alveolar, peri-bronchiolar, and total inflammation by computing the means of three independent scores for three randomly selected fields. […] For evaluating the hyperplasia goblet cells, medium-sized airways were assessed in sections stained with periodic acid-Schiff (PAS) stain. Two reviewers independently and randomly scored 10 fields of each slide. […]"}}, "data": [{"sequence": "NYRWRCKNQN (CMP)", "values": [{"measurement": "AHR, response to increasing dose of inhaled methacholine", "setting": "[1]; CMP intranasal, eIN+mIT, mIT+eIN and eIN+mIT+eIN groups", "result": "significantly decrease"}, {"measurement": "Penh stimulation compared with mite group", "setting": "[1]; eIN+mIT and mIT+eIN groups, 25 mg/ml MCh", "result": "lower stimulation"}, {"measurement": "Penh/baseline ratio change of mIT group compared with CMP group", "setting": "[1]; mIT vs eIN+mIT+eIN group, 12.5 and 25 mg/ml MCh", "result": "much higher"}, {"measurement": "effect on peribronchiolar, alveolar inflammation and goblet cells hyperplasia", "setting": "[2]; eIN+mIT+eIN compared with eIN+mIT and mIT+eIN group", "result": "more potently suppressive effect"}, {"measurement": "peri-bronchiolar and alveolar scores compared with mIT group", "setting": "[2]; eIN+mIT+eIN group (CMP days 1 to 22)", "result": "significantly lower"}]}]}
